Experimental data as given in ChEMBL document CHEMBL4507277.

How the values were obtained:
Details in all cases: Compound concentration 1000.0 nM
[1] = molecular target: MAP kinase-activated protein kinase 5 (Homo sapiens) (UniProt Q8IW41)
[2] = system: Tyrosine-protein kinase ABL1 (Homo sapiens), P00519 [M351T]
[3] = molecular target: Tyrosine-protein kinase BTK (Homo sapiens) (UniProt Q06187)
[4] = molecular target: Serine/threonine-protein kinase 26 (Homo sapiens) (UniProt Q9P289)
[5] = molecular target: Serine/threonine-protein kinase ULK3 (Homo sapiens) (UniProt Q6PHR2)
Sequence of Serine/threonine-protein kinase ULK3 (Homo sapiens) (Q6PHR2 whole entry): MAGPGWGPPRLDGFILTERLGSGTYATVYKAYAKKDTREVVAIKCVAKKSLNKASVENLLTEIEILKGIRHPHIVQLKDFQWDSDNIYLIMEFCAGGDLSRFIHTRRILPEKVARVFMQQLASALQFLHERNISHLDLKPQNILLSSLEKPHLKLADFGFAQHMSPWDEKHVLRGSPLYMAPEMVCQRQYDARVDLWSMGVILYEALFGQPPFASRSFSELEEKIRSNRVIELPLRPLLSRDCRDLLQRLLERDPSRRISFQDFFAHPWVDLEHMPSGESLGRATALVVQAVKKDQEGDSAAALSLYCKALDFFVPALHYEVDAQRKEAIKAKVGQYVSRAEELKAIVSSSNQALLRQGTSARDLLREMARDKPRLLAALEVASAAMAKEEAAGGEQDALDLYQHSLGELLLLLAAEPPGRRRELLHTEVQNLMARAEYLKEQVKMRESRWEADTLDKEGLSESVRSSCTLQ

[6] = molecular target: Ribosomal protein S6 kinase alpha-2 (Homo sapiens) (UniProt Q15349)
[7] = system: Tyrosine-protein kinase ABL1 (Homo sapiens), P00519 [Q252H]
[8] = molecular target: Tyrosine-protein kinase ITK/TSK (Homo sapiens) (UniProt Q08881)
[9] = molecular target: Dual specificity tyrosine-phosphorylation-regulated kinase 1A (Homo sapiens) (UniProt Q13627)
[10] = molecular target: Calcium/calmodulin-dependent protein kinase kinase 2 (Homo sapiens) (UniProt Q96RR4)
[11] = molecular target: Ribosomal protein S6 kinase alpha-1 (Homo sapiens) (UniProt Q15418)
[12] = molecular target: Serine/threonine-protein kinase MRCK beta (Homo sapiens) (UniProt Q9Y5S2)
[13] = molecular target: Serine/threonine-protein kinase VRK2 (Homo sapiens) (UniProt Q86Y07)
[14] = molecular target: Dual serine/threonine and tyrosine protein kinase (Homo sapiens) (UniProt Q6XUX3)
[15] = molecular target: Death-associated protein kinase 3 (Homo sapiens) (UniProt O43293)
[16] = molecular target: Receptor-type tyrosine-protein kinase FLT3 (Homo sapiens) (UniProt P36888)
[17] = system: Tyrosine-protein kinase ABL1 (Homo sapiens), P00519 [F317I]
[18] = molecular target: Serine/threonine-protein kinase D3 (Homo sapiens) (UniProt O94806)
[19] = molecular target: Serine/threonine-protein kinase SIK1 (Homo sapiens) (UniProt P57059)
Sequence of Serine/threonine-protein kinase SIK1 (Homo sapiens) (P57059 whole entry): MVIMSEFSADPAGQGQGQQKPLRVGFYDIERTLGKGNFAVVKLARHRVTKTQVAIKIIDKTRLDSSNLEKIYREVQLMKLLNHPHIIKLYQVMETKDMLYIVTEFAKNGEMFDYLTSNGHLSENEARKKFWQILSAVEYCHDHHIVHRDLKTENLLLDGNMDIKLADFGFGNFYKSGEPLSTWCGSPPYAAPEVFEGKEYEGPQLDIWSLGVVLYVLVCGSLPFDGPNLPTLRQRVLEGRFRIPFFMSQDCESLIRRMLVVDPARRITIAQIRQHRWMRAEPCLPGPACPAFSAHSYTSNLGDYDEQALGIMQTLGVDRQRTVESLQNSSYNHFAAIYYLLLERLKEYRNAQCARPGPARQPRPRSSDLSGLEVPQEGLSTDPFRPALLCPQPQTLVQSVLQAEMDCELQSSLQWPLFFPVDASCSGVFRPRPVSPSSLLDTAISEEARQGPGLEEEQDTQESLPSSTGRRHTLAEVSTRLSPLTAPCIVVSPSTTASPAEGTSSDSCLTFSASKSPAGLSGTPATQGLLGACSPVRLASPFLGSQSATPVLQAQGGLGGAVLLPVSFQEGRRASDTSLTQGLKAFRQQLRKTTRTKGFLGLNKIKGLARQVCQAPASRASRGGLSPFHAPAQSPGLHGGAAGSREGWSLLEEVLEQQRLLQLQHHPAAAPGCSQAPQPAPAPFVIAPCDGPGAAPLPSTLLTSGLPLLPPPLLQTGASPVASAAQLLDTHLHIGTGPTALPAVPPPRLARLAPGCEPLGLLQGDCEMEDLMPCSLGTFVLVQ

[20] = molecular target: Protein-tyrosine kinase 2-beta (Homo sapiens) (UniProt Q14289)
[21] = molecular target: SRSF protein kinase 2 (Homo sapiens) (UniProt P78362)
[22] = molecular target: Serine/threonine-protein kinase Nek11 (Homo sapiens) (UniProt Q8NG66)
Sequence of Serine/threonine-protein kinase Nek11 (Homo sapiens) (Q8NG66 whole entry): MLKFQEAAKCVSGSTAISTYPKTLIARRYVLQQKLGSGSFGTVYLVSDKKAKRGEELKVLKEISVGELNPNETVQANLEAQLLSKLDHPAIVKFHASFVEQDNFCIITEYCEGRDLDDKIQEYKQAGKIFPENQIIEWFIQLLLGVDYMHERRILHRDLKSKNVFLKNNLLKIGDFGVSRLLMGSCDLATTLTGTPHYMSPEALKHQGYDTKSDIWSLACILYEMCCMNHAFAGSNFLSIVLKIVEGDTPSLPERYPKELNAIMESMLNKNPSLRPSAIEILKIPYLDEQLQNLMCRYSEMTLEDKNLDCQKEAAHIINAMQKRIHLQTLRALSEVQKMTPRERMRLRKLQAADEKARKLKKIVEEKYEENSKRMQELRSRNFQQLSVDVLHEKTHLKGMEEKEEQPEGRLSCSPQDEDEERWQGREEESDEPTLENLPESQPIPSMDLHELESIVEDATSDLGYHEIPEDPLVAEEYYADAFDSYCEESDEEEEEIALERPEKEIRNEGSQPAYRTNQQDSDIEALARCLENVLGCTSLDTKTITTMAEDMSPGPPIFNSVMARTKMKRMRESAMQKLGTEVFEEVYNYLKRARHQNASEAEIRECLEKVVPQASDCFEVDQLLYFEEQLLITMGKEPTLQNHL

[23] = molecular target: Atypical kinase COQ8B, mitochondrial (Homo sapiens) (UniProt Q96D53)
[24] = molecular target: Myosin light chain kinase 2, skeletal/cardiac muscle (Homo sapiens) (UniProt Q9H1R3)
[25] = molecular target: Receptor-interacting serine/threonine-protein kinase 1 (Homo sapiens) (UniProt Q13546)
[26] = molecular target: Phosphatidylinositol 4-kinase beta (Homo sapiens) (UniProt Q9UBF8)
[27] = molecular target: Myotonin-protein kinase (Homo sapiens) (UniProt Q09013)
[28] = molecular target: Serine/threonine-protein kinase PknB (Mycobacterium tuberculosis) (UniProt P9WI81)
Sequence of Serine/threonine-protein kinase PknB (Mycobacterium tuberculosis) (P9WI81 whole entry): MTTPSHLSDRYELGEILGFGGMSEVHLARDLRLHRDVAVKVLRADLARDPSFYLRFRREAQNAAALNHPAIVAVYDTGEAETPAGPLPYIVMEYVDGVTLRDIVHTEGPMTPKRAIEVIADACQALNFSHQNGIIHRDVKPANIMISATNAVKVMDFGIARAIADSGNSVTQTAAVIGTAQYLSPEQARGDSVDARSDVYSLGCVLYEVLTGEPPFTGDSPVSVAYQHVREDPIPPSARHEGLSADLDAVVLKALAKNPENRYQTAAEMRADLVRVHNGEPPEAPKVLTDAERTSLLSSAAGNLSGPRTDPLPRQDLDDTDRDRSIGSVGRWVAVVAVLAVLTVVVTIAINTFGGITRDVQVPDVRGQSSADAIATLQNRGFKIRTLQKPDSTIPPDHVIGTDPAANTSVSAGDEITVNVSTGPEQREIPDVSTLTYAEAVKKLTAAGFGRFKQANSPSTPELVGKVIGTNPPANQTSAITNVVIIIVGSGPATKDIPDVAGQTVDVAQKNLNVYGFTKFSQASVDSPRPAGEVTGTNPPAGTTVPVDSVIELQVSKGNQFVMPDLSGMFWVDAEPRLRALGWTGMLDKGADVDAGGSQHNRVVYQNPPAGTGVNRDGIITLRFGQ

[29] = molecular target: Tyrosine-protein kinase Yes (Homo sapiens) (UniProt P07947)
[30] = molecular target: Serine/threonine-protein kinase TAO1 (Homo sapiens) (UniProt Q7L7X3)
[31] = molecular target: Tyrosine-protein kinase TXK (Homo sapiens) (UniProt P42681)
[32] = molecular target: Cytoplasmic tyrosine-protein kinase BMX (Homo sapiens) (UniProt P51813)
[33] = molecular target: Protein-tyrosine kinase 6 (Homo sapiens) (UniProt Q13882)
[34] = molecular target: Calcium/calmodulin-dependent protein kinase type II subunit gamma (Homo sapiens) (UniProt Q13555)
[35] = system: Serine/threonine-protein kinase B-raf (Homo sapiens), P15056 [V600E]
[36] = molecular target: Dual specificity protein kinase CLK4 (Homo sapiens) (UniProt Q9HAZ1)
[37] = molecular target: Aurora kinase A (Homo sapiens) (UniProt O14965)
[38] = molecular target: Ephrin type-A receptor 5 (Homo sapiens) (UniProt P54756)
[39] = molecular target: Serine/threonine-protein kinase 3 (Homo sapiens) (UniProt Q13188)
[40] = molecular target: Cyclin-dependent kinase-like 5 (Homo sapiens) (UniProt O76039)
[41] = molecular target: Serine/threonine-protein kinase MAK (Homo sapiens) (UniProt P20794)
[42] = molecular target: Serine/threonine-protein kinase Nek10 (Homo sapiens) (UniProt Q6ZWH5)
[43] = molecular target: High affinity nerve growth factor receptor (Homo sapiens) (UniProt P04629)
[44] = molecular target: Mitogen-activated protein kinase kinase kinase 4 (Homo sapiens) (UniProt Q9Y6R4)
Sequence of Mitogen-activated protein kinase kinase kinase 4 (Homo sapiens) (Q9Y6R4 whole entry): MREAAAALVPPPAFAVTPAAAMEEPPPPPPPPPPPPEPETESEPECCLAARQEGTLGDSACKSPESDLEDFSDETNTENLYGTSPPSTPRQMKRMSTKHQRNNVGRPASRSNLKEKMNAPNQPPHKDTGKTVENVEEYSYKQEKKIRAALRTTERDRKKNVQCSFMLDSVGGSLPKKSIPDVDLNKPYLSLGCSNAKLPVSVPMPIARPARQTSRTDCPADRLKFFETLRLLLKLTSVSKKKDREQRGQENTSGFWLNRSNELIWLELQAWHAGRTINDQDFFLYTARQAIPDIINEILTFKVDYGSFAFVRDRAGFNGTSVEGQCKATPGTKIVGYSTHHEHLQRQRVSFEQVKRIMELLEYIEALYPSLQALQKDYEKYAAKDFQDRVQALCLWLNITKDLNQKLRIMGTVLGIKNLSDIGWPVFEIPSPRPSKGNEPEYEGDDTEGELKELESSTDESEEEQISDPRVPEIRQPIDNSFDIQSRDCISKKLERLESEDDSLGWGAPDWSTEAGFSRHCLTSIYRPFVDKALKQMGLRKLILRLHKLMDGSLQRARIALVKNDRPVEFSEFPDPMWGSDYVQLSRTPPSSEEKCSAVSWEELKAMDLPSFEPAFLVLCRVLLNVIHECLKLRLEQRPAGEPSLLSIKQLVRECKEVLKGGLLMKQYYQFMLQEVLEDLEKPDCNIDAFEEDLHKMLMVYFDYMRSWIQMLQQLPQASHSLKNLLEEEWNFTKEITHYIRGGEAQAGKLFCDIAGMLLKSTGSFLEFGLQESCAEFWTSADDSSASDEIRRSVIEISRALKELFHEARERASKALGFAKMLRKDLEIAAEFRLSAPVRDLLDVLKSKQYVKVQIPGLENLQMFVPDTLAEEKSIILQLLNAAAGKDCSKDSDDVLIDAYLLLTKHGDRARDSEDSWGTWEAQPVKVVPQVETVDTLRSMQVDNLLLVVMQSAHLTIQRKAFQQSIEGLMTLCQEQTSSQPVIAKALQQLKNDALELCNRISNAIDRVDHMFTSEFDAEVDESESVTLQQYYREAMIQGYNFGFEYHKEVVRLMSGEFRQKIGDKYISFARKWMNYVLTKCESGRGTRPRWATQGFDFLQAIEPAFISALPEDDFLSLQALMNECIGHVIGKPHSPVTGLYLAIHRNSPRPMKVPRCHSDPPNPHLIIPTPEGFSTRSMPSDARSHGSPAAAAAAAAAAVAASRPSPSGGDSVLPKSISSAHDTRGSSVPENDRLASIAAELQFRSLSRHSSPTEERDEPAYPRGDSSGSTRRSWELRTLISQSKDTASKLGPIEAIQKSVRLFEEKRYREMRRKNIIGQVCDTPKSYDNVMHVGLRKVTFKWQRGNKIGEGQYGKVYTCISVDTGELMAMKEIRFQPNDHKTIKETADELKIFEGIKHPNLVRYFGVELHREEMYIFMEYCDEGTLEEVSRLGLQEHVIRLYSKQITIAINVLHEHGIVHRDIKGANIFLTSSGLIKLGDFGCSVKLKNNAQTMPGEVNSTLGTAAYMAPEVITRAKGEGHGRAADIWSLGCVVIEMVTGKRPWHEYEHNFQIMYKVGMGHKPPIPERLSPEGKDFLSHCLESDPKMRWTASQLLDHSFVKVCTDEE

[45] = system: Tyrosine-protein kinase ABL1 (Homo sapiens), P00519 [F317L]
[46] = molecular target: Dual specificity protein kinase CLK2 (Homo sapiens) (UniProt P49760)
Sequence of Dual specificity protein kinase CLK2 (Homo sapiens) (P49760 whole entry, looked up): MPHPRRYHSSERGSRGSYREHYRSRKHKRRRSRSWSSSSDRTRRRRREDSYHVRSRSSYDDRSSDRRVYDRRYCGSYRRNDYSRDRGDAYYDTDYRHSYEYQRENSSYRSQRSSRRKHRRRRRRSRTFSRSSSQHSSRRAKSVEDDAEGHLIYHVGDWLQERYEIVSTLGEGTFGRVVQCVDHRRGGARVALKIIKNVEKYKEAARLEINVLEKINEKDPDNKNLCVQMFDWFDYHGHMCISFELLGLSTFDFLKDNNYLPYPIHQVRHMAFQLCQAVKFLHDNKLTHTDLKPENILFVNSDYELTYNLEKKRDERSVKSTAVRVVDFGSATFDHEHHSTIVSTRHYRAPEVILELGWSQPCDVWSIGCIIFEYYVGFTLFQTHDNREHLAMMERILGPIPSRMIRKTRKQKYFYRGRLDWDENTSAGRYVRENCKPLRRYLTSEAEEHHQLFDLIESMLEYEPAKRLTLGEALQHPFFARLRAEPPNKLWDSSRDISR

Sequence of Serine/threonine-protein kinase 26 (Homo sapiens) (Q9P289 2-416 limits assumed): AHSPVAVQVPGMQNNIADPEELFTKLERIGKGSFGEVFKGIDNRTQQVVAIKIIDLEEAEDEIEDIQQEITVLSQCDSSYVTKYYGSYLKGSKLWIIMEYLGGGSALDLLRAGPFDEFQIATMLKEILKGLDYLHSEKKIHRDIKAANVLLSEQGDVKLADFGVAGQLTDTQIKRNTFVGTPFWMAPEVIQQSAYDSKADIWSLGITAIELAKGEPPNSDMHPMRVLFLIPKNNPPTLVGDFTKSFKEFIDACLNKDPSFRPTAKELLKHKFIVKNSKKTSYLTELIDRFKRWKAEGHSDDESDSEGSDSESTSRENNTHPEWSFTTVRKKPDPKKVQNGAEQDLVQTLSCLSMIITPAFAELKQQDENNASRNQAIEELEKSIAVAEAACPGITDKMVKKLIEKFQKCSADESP

CCS(=O)(=O)c1cc2cc(C[C@](O)(CC(C)(C)c3ccc(F)cc3C(N)=O)C(F)(F)F)[nH]c2cn1 gave a residual activity [1] of 93%, a residual activity [2] of 94% and a residual activity [3] of 100%. The residual activity [4] was 94%, the residual activity [5] was 100% and the residual activity [6] was 100%. It also gave a residual activity [7] of 100%, a residual activity [8] of 100% and a residual activity [9] of 100%. It also gave a residual activity [10] of 100%, a residual activity [11] of 87% and a residual activity [12] of 100%. For the same molecule, the residual activity [13] was 100%, the residual activity [14] was 86% and the residual activity [15] was 97%. For the same molecule, the residual activity [16] was 85%, the residual activity [17] was 95% and the residual activity [18] was 99%. The residual activity [19] was 100%, the residual activity [20] was 100% and the residual activity [21] was 82%. For the same molecule, the residual activity [22] was 93%, the residual activity [23] was 78% and the residual activity [24] was 98%. For the same molecule, the residual activity [25] was 100%, the residual activity [26] was 100% and the residual activity [27] was 99%. The residual activity [28] was 95%, the residual activity [29] was 100% and the residual activity [30] was 88%. It also gave a residual activity [31] of 90%, a residual activity [32] of 74% and a residual activity [33] of 100%. It also gave a residual activity [34] of 100%, a residual activity [35] of 100% and a residual activity [36] of 95%. For the same molecule, the residual activity [37] was 88%, the residual activity [38] was 100% and the residual activity [39] was 97%. For the same molecule, the residual activity [40] was 100%, the residual activity [41] was 100% and the residual activity [42] was 100%. The residual activity [43] was 82%, the residual activity [44] was 93% and the residual activity [45] was 100%. The residual activity [46] was 100%.
Molecule CCS(=O)(=O)c1cc2cc(C[C@@](O)(CC(C)(C)c3ccc(F)cc3C(N)=O)C(F)(F)F)[nH]c2cn1 has a residual activity [1] of 81%, a residual activity [2] of 96% and a residual activity [3] of 100%. The residual activity [4] was 91%, the residual activity [5] was 98% and the residual activity [6] was 80%. The residual activity [7] was 79%, the residual activity [8] was 96% and the residual activity [9] was 66%. For the same molecule, the residual activity [10] was 56%, the residual activity [11] was 0% and the residual activity [12] was 99%. The residual activity [13] was 80%, the residual activity [14] was 100% and the residual activity [15] was 100%. For the same molecule, the residual activity [16] was 100%, the residual activity [17] was 78% and the residual activity [18] was 100%. The residual activity [19] was 100%, the residual activity [20] was 100% and the residual activity [21] was 70%. For the same molecule, the residual activity [22] was 100%, the residual activity [23] was 100% and the residual activity [24] was 100%. It also gave a residual activity [25] of 92%, a residual activity [26] of 100% and a residual activity [27] of 85%. For the same molecule, the residual activity [28] was 84%, the residual activity [29] was 100% and the residual activity [30] was 73%. The residual activity [31] was 97%, the residual activity [32] was 50% and the residual activity [33] was 97%. The residual activity [34] was 77%, the residual activity [35] was 100% and the residual activity [36] was 100%. It also gave a residual activity [37] of 88%, a residual activity [38] of 100% and a residual activity [39] of 100%. It also gave a residual activity [40] of 77%, a residual activity [41] of 100% and a residual activity [42] of 88%. The residual activity [43] was 74%, the residual activity [44] was 93% and the residual activity [45] was 90%. For the same molecule, the residual activity [46] was 100%.
